PubChem BioAssay AID2060500 (Molecular Pharmacology Branch, DTP, NCI, 2025)

System: 596521-263-R-J1-PDC complex spheroids, viability % of control
Assay: Anticancer human tumor 596521-263-R-J1-PDC patient-derived soft tissue sarcoma cell line growth inhibition [GQUAD]
Details: for IC50: curve of first compound; for viability, T/C: stronger effect = lower value
Outline: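 Tumor cells were grown as complex spheroids with HUVEC endothelial cells and mesenchymal stem cells as stroma. G-quadruplex stabilizers were combined with targeted agents over half-log dilutions from near the clinical Cmax, or from 10 microM.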

[1] = second compound 0.0316 µM, first compound 0.0316 µM
[2] = second compound 0.0316 µM, first compound 0.1 µM
[3] = second compound 0.0316 µM, first compound 0.316 µM
[4] = second compound 0.0316 µM, first compound 1 µM
[5] = second compound 0.0316 µM, first compound 3.16 µM
[6] = second compound 0.0316 µM, first compound 10 µM
[7] = second compound 0.1 µM, first compound 0.0316 µM
[8] = second compound 0.1 µM, first compound 0.1 µM
[9] = second compound 0.1 µM, first compound 0.316 µM
[10] = second compound 0.1 µM, first compound 1 µM
[11] = second compound 0.1 µM, first compound 3.16 µM
[12] = second compound 0.1 µM, first compound 10 µM
[13] = second compound 0.316 µM, first compound 0.0316 µM
[14] = second compound 0.316 µM, first compound 0.1 µM
[15] = second compound 0.316 µM, first compound 0.316 µM
[16] = second compound 0.316 µM, first compound 1 µM
[17] = second compound 0.316 µM, first compound 3.16 µM
[18] = second compound 0.316 µM, first compound 10 µM
[19] = second compound 1 µM, first compound 0.0316 µM
[20] = second compound 1 µM, first compound 0.1 µM
[21] = second compound 1 µM, first compound 0.316 µM
[22] = second compound 1 µM, first compound 1 µM
[23] = second compound 1 µM, first compound 3.16 µM
[24] = second compound 1 µM, first compound 10 µM
[25] = second compound 3.16 µM, first compound 0.0316 µM
[26] = second compound 3.16 µM, first compound 0.1 µM
[27] = second compound 3.16 µM, first compound 0.316 µM
[28] = second compound 3.16 µM, first compound 1 µM
[29] = second compound 3.16 µM, first compound 3.16 µM
[30] = second compound 3.16 µM, first compound 10 µM
[31] = second compound 10 µM, first compound 0.0316 µM
[32] = second compound 10 µM, first compound 0.1 µM
[33] = second compound 10 µM, first compound 0.316 µM
[34] = second compound 10 µM, first compound 1 µM
[35] = second compound 10 µM, first compound 3.16 µM
[36] = second compound 10 µM, first compound 10 µM
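Also: spheroids exposed to drugs for 7 days before viability reading.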
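For viability, T/C in this document: 100% = DMSO vehicle control viability.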

## CC(C)(O)C1CCC(Nc2ccc3ncc(-c4cccc(C(F)(F)F)c4)n3n2)CC1 (centres undefined) + Cc1cnc(CNC(=O)c2c(=O)c3ccc(N4CCCN(C)CC4)nc3n3c2sc2ccccc23)cn1
Second compound 0.0316 µM
  IC50: 1.72 µM
Second compound 0.1 µM
  IC50: 1.32 µM
Second compound 0.316 µM
  IC50: 1.01 µM
Second compound 1 µM
  IC50: 0.83 µM
Second compound 3.16 µM
  IC50: < 0.0316 µM
Second compound 10 µM
  IC50: < 0.0316 µM
[1]
  viability, T/C: 89.8%
[2]
  viability, T/C: 82.3%
[3]
  viability, T/C: 88.3%
[4]
  viability, T/C: 77.7%
[5]
  viability, T/C: 18.8%
[6]
  viability, T/C: 14.4%
[7]
  viability, T/C: 81.9%
[8]
  viability, T/C: 79.9%
[9]
  viability, T/C: 74.2%
[10]
  viability, T/C: 59.5%
[11]
  viability, T/C: 20.5%
[12]
  viability, T/C: 18.2%
[13]
  viability, T/C: 72.3%
[14]
  viability, T/C: 69.5%
[15]
  viability, T/C: 68.6%
[16]
  viability, T/C: 50.5%
[17]
  viability, T/C: 18.4%
[18]
  viability, T/C: 15.9%
[19]
  viability, T/C: 57.6%
[20]
  viability, T/C: 53.6%
[21]
  viability, T/C: 63.1%
[22]
  viability, T/C: 47.8%
[23]
  viability, T/C: 21.7%
[24]
  viability, T/C: 15.1%
[25]
  viability, T/C: 46.6%
[26]
  viability, T/C: 46.5%
[27]
  viability, T/C: 51.7%
[28]
  viability, T/C: 45.2%
[29]
  viability, T/C: 0.12%
[30]
  viability, T/C: 0.13%
[31]
  viability, T/C: 33.3%
[32]
  viability, T/C: 13.8%
[33]
  viability, T/C: 41.2%
[34]
  viability, T/C: 0.19%
[35]
  viability, T/C: 0.23%
[36]
  viability, T/C: 0.18%

## COc1ncnc(C2CC2)c1-c1ncc2cnn(Cc3ccc(-c4nc(C(F)(F)F)cn4C(C)C)cc3)c2n1 + Cc1cnc(CNC(=O)c2c(=O)c3ccc(N4CCCN(C)CC4)nc3n3c2sc2ccccc23)cn1
Second compound 0.0316 µM
  IC50: > 10 µM
Second compound 0.1 µM
  IC50: > 10 µM
Second compound 0.316 µM
  IC50: > 10 µM
Second compound 1 µM
  IC50: > 10 µM
Second compound 3.16 µM
  IC50: > 10 µM
Second compound 10 µM
  IC50: < 0.0316 µM
[1]
  viability, T/C: 90.2%
[2]
  viability, T/C: 90.6%
[3]
  viability, T/C: 78%
[4]
  viability, T/C: 90.4%
[5]
  viability, T/C: 86.9%
[6]
  viability, T/C: 79%
[7]
  viability, T/C: 84.4%
[8]
  viability, T/C: 77.2%
[9]
  viability, T/C: 74.7%
[10]
  viability, T/C: 77.1%
[11]
  viability, T/C: 85%
[12]
  viability, T/C: 79.2%
[13]
  viability, T/C: 72%
[14]
  viability, T/C: 74.2%
[15]
  viability, T/C: 67.9%
[16]
  viability, T/C: 79.5%
[17]
  viability, T/C: 70.2%
[18]
  viability, T/C: 65.7%
[19]
  viability, T/C: 62.8%
[20]
  viability, T/C: 65%
[21]
  viability, T/C: 65.1%
[22]
  viability, T/C: 63.1%
[23]
  viability, T/C: 64%
[24]
  viability, T/C: 61.9%
[25]
  viability, T/C: 53.1%
[26]
  viability, T/C: 59.2%
[27]
  viability, T/C: 51.6%
[28]
  viability, T/C: 48.6%
[29]
  viability, T/C: 59.8%
[30]
  viability, T/C: 49.9%
[31]
  viability, T/C: 44.6%
[32]
  viability, T/C: 25.6%
[33]
  viability, T/C: 41.5%
[34]
  viability, T/C: 42.6%
[35]
  viability, T/C: 40.7%
[36]
  viability, T/C: 0.28%
